Measured values reported in patent US20130130985A1 (priority 2010, published 2013).
Where a SMILES comes first, the peptide text is derived from it.

Assays:
[1] = phosphate buffer pH 7.4, 37° C., over a period of 48 h
[2] = Stability assay in rat plasma and human serum (metabolic half life); conditions: Half life (h), 37° C., matrix of the values not specified
Description: 300 μL rat plasma and human serum (Sigma Aldrich) was incubated at 37° C. for 30 min. 50 mL of peptide sample (0.3 mM) in 0.1 M phosphate buffer, pH 7.2 was added to the rat plasma and human serum. The vortexed mixture was incubated at 37° C.

hV1aR [3] = target: T1, hV1aR (Homo sapiens, UniProt P37288); experiment: Functional FLIPR assay (calcium signalling); type: cell-based
T1 construct: expressed in transfected cells; host or cells: COS-1
Description: (§1) To allow for complete de-esterification of the dye, cells were washed 5-10 min with PSS before transfer to a FLIPR^TETRA (Molecular Devices, Sunnyvale, Calif.) fluorescent plate reader. […] The baseline fluorescence was set to a minimum of 1000 arbitrary fluorescence units by adjusting camera gain and excitation intensity. Compounds were added as 3× concentrated stock solutions in PSS, with 10 baseline fluorescence readings prior to compound addition followed by fluorescence reading every second for 180 s.
(§2) As previously described, raw fluorescence data was converted to ΔF/F values by subtracting baseline fluorescence readings from subsequent time points and dividing by baseline fluorescence values. […] A 4-parameter Hill equation with Hill coefficient=1 was fitted to the data using GraphPad Prism (Version 4.00, San Diego, Calif.).

hV1aR [4] = target: T1, hV1aR; experiment: Functional IP-One HTRF assay; type: cell-based
Description: (§3) Cells were lysed by the addition of the HTRF reagents (the europium cryptate-labeled anti-IP1 antibody and the d2-labeled IP1 analogue) diluted in lysis buffer. The assays were incubated for 1 h at room temperature.

hOTR [5] = target: T2, hOTR (Homo sapiens, UniProt P30559); experiment: Functional IP-One HTRF assay; type: cell-based; conditions: for Emax: read-out: hOTR Emax
T2 construct: expressed in transfected cells; host or cells: COS-1
T2 sequence (P30559 1-389): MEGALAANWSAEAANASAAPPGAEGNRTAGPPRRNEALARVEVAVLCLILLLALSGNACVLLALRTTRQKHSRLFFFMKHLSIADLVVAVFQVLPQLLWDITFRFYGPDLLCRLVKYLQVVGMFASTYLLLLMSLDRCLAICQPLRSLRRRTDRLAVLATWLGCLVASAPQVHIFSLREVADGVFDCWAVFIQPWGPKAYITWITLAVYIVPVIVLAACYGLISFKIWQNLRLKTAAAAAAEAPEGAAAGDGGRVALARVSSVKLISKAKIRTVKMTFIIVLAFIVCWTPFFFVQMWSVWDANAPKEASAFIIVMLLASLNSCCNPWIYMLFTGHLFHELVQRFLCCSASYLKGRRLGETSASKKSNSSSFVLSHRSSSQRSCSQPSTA
Description: as §3

hV1bR [6] = target: T3, hV1bR (Homo sapiens, UniProt P47901); experiment: Functional IP-One HTRF assay; type: cell-based
T3 construct: expressed in transfected cells; host or cells: COS-1
T3 sequence (P47901 1-424): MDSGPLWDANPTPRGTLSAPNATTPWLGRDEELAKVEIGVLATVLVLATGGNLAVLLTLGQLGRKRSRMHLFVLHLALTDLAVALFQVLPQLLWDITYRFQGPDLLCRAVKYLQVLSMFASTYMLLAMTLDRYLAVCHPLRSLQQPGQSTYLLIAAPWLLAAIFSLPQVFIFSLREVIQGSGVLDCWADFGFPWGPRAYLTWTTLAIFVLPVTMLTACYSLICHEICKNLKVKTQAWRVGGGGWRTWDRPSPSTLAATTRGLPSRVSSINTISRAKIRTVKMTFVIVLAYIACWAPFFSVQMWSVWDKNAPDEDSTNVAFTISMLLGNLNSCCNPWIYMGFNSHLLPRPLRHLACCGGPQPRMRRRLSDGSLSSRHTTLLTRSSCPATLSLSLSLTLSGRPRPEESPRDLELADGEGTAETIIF
Description: as §3

hV1bR [7] = target: T3, hV1bR; experiment: Functional FLIPR assay (calcium signalling); type: cell-based
Description: as §1, §2

hOTR [8] = target: T2, hOTR; experiment: Functional FLIPR assay (calcium signalling); type: cell-based
Description: as §1, §2

hV1bR [9] = target: T3, hV1bR; experiment: Radioligand binding assay, displacement of 3H-AVP, COS-1 membranes
hOTR [10] = target: T2, hOTR; experiment: Radioligand binding assay, displacement of 3H-OT, COS-1 membranes

T1 sequence (P37288 whole entry): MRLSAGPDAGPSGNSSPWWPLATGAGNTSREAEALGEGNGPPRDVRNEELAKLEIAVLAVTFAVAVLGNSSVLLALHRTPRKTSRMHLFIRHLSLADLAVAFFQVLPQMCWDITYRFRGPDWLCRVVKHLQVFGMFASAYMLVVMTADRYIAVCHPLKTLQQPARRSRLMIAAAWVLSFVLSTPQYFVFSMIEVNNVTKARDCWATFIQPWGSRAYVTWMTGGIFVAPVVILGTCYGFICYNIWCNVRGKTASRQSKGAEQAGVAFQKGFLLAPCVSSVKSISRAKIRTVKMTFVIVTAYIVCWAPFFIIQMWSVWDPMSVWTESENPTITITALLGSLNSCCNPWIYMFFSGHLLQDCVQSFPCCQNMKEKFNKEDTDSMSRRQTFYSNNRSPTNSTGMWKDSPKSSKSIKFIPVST

Row | SMILES | Emax (hV1aR [3]) [%] | Emax (hV1aR [4]) [%] | Emax (hOTR [5]) [%] | degradation in phosphate buffer [1] | Emax (hV1bR [6]) [%] | also measured
1 | NC(=O)CC[C@@H]1NC(=O)[C@H](Cc2ccccc2)NC(=O)[C@H](Cc2ccc(O)cc2)NC(=O)[C@@H](N)CSSC[C@@H](C(=O)N2CCC[C@H]2C(=O)N[C@@H](CCCN=C(N)N)C(=O)NCC(N)=O)NC(=O)[C@H](CC(N)=O)NC1=O [AVP, arginine-vasopressin] |  |  |  | no degradation was observed |  | half-life at 0.043 mM [2]: 2 h
2 | CC[C@H](C)[C@@H]1NC(=O)[C@H](Cc2ccc(O)cc2)NC(=O)[C@@H](N)CSSC[C@@H](C(=O)N2CCC[C@H]2C(=O)N[C@@H](CC(C)C)C(=O)NCC(N)=O)NC(=O)[C@H](CC(N)=O)NC(=O)[C@H](CCC(N)=O)NC1=O [OT, Oxytocin] | 71 | 79 ± 9 |  | no degradation was observed |  | 
3 | CC[C@H](C)[C@@H]1NC(=O)[C@H](Cc2ccc(O)cc2)NC(=O)[C@@H](N)CSSC[C@@H](C(=O)N2CCC[C@H]2C(=O)N[C@@H](CC(C)C)C(=O)NCC(=O)O)NC(=O)[C@H](CC(N)=O)NC(=O)[C@H](CCC(N)=O)NC1=O [[S—S]-OT-OH, OT-OH] |  | 77 ± 24 | 82 ± 13 |  | 96 ± 6 | drop in functional efficacy at the hV1bR (hV1bR [6]; compared to OT): 10-30 fold; drop in functional efficacy at the hOTR (hOTR [5]; compared to OT): 10-30 fold

The next lines start with results.

Row | Emax (hV1aR [3]) [%] | Emax (hV1aR [4]) [%] | Emax (hOTR [5]) [%] | SMILES | degradation in phosphate buffer [1] | Emax (hV1bR [6]) [%] | also measured
4 |  | 75 ± 8 | 64 ± 14 | CC[C@H](C)[C@@H]1NC(=O)[C@H](Cc2ccc(O)cc2)NC(=O)[C@@H](N)CCSC[C@@H](C(=O)N2CCC[C@H]2C(=O)N[C@@H](CC(C)C)C(=O)NCC(N)=O)NC(=O)[C@H](CC(N)=O)NC(=O)[C@H](CCC(N)=O)NC1=O [[CH2—S]-OT] (HELM PEPTIDE1{[N[C@@H](CC[*:3])C(=O)[*:2]].Y.I.Q.N.C.P.L.G.[am]}$PEPTIDE1,PEPTIDE1,1:R3-6:R3$$$V2.0; N-terminus and C-terminus assumed) |  |  | 
5 | 54 |  | 100 | CC[C@H](C)[C@@H]1NC(=O)[C@H](Cc2ccc(O)cc2)NC(=O)CCSSC[C@@H](C(=O)N2CCC[C@H]2C(=O)N[C@@H](CC(C)C)C(=O)NCC(N)=O)NC(=O)[C@H](CC(N)=O)NC(=O)[C@H](CCC(N)=O)NC1=O [dOT] |  | 67 ± 10 | Emax (hV1bR [7]): 100%; EC50 (hV1bR [7]; FLIPR assay, COS-1): 15.9 ± 5.96 nM; Emax (hOTR [8]): 89%; EC50 (hOTR [8]; FLIPR assay, COS-1): 0.39 nM; EC50 (hV1aR [3]; FLIPR assay, COS-1): 46.1 nM; IC50 (hV1bR [9]): 351 ± 125 nM; EC50 (hV1bR [6]; IP-One assay, COS-1): 470 ± 422 nM; EC50 (hOTR [5]; IP-One assay, COS-1): 0.71 nM; IC50 (hOTR [10]): 1.7 nM
